Experimental data reported in patent publication US8940739B2, “Compound of a reverse-turn mimetic and a production method and use therefor” (JW Pharmaceutical Corporation, priority 2010, dated 2015).

Molecular target: cDNA-expressed human hepatic CYP3A4 (Homo sapiens (Human), UniProt P08684)
Assay: Measurement of CYP (IC50 of P450 CYP3A4), BFC substrate
Format: in vitro ADME
Details: 20 minutes
Procedure: The compounds of the present invention had lower P450 CYP3A4 inhibitory activity (higher IC50). Lower CYP3A4 inhibitory activity means that the compounds of the present invention cause fewer side-effects from the pharmacological point of view.
This assay was performed in a 200 l volume in 96-well microtiter plates using cDNA-expressed human hepatic CYP3A4 (supersome, BD Gentest™ #456202). As a substrate for CYP3A4, 7-benzyloxy-4-trifluoromethyl-coumarin (BFC) was used. The compounds of Examples 1 to 5 and the substrate BFC were dissolved in 100% acetonitrile. The final volume of acetonitrile of the incubation mixture was less than 1% (volume/volume). A potassium phosphate buffer (pH 7.4, final concentration 0.1M), MgCl2 (final concentration 8.3 mM), EDTA (final concentration 1.67 mM), an inventive compound stock solution, CYP3A4 supersome, and NADPH (final concentration 0.25 mM) were added to each well. The reaction was initiated by adding the substrate (BFC, final concentration 30 µM) at 37. The incubation was performed for 20 minutes and then the reaction was terminated by the addition of 75 μl of acetonitrile: 0.5 M tris-base=4:1 (volume/volume).
Then, a fluorescent signal was measured using a fluorometer. A BFC metabolite, 7-hydroxy-4-trifluoromethyl-coumarin, was measured using an excitation wavelength of 409 nm and an emission wavelength of 530 nm.

Sequence of cDNA-expressed human hepatic CYP3A4 (P08684 whole entry): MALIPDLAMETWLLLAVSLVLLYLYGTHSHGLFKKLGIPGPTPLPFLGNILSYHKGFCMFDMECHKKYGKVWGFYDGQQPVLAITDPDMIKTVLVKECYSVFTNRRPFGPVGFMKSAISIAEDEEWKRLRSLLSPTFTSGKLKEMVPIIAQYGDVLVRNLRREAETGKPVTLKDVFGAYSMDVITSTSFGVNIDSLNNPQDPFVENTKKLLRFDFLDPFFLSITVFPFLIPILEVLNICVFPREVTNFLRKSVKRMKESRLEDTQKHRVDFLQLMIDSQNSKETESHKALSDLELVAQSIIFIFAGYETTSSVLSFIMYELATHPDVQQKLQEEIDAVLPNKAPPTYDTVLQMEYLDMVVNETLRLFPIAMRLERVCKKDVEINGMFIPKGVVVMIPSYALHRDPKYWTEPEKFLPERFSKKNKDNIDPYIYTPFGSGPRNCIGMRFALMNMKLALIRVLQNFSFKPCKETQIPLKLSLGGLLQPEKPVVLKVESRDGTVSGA

| Compound | IC50 |
| --- | --- |
| C=CCN1CC(=O)N2[C@@H](Cc3ccc(O)cc3)C(=O)N(Cc3cccc4c(C(=O)N(C)CCN5CCN(C)CC5)cn(C)c34)C[C@@H]2N1C(=O)NCc1ccccc1 [Compound F-28] | 7.8 µM |
| C=CCN1CC(=O)N2[C@@H](Cc3ccc(O)cc3)C(=O)N(Cc3cccc4c(-c5cccc(C(=O)Nc6ccc(N7CCN(c8ccc(OC)cc8)CC7)cc6)c5)cn(C)c34)C[C@@H]2N1C(=O)NCc1ccccc1 [Compound D-25] | > 25 µM |
| C=CCN1CC(=O)N2[C@@H](Cc3ccc(O)cc3)C(=O)N(Cc3cccc4c(C(=O)N5CC(O)C5)cn(C)c34)C[C@@H]2N1C(=O)NCc1ccccc1 [Compound E-70] | 18.3 µM |
| C=CCN1CC(=O)N2[C@@H](Cc3ccc(O)cc3)C(=O)N(Cc3cccc4c(C(=O)NC5CCN(CCCO)CC5)cn(C)c34)C[C@@H]2N1C(=O)NCc1ccccc1 [Compound F-63] | 9.71 µM |
| C=CCN1CC(=O)N2[C@@H](Cc3ccc(O)cc3)C(=O)N(Cc3cccc4c(C(=O)NCCCN5CCN(C)CC5)cn(C)c34)C[C@@H]2N1C(=O)NCc1ccccc1 [Compound F-30] | 2.54 µM |
| C=CCN1CC(=O)N2[C@@H](Cc3ccc(O)cc3)C(=O)N(Cc3cccc4c(-c5cccc(C(=O)Nc6ccccc6)c5)cn(C)c34)C[C@@H]2N1C(=O)NCc1ccccc1 [Compound D-14] | 2.13 µM |
| C=CCN1CC(=O)N2[C@@H](Cc3ccc(O)cc3)C(=O)N(Cc3cccc4c(C(=O)N5CCN(C(C)=O)CC5)cn(C)c34)C[C@@H]2N1C(=O)NCc1ccccc1 [Compound E-14] | 10.9 µM |
| C=CCN1CC(=O)N2[C@@H](Cc3ccc(O)cc3)C(=O)N(Cc3cccc4c(-c5ccc(NC(=O)CCCCCCC)cc5)cn(C)c34)C[C@@H]2N1C(=O)NCc1ccccc1 [Compound D-52] | 21.7 µM |
| C=CCN1CC(=O)N2[C@@H](Cc3ccc(O)cc3)C(=O)N(Cc3cccc4c(C(=O)N5CCN(S(=O)(=O)CC)CC5)cn(C)c34)C[C@@H]2N1C(=O)NCc1ccccc1 [Compound E-16] | 2.82 µM |
| C=CCN1CC(=O)N2[C@@H](Cc3ccc(O)cc3)C(=O)N(Cc3cccc4c(C(=O)NN5CCN(C6CCCC6)CC5)cn(C)c34)C[C@@H]2N1C(=O)NCc1ccccc1 [Compound F-59] | 2.39 µM |
| C=CCN1CC(=O)N2[C@@H](Cc3ccc(O)cc3)C(=O)N(Cc3cccc4c(C(=O)NN5CCN(c6ccccn6)CC5)cn(C)c34)C[C@@H]2N1C(=O)NCc1ccccc1 [Compound E-38] | 2.48 µM |
| C=CCN1CC(=O)N2[C@@H](Cc3ccc(O)cc3)C(=O)N(Cc3cccc4c(C(=O)N5CCC(NC(=O)CCO)CC5)cn(C)c34)C[C@@H]2N1C(=O)NCc1ccccc1 [Compound E-57] | 7.65 µM |
| C=CCN1CC(=O)N2[C@@H](Cc3ccc(O)cc3)C(=O)N(Cc3cccc4c(C(=O)N(CCO)CCNCCO)cn(C)c34)C[C@@H]2N1C(=O)NCc1ccccc1 [Compound F-20] | 2.89 µM |
| C=CCN1CC(=O)N2[C@@H](Cc3ccc(O)cc3)C(=O)N(Cc3cccc4c(C(=O)N5CCN(C6CCN(C)CC6)CC5)cn(C)c34)C[C@@H]2N1C(=O)NCc1ccccc1 [Compound E-64] | 8.55 µM |
| C=CCN1CC(=O)N2C(Cc3ccc(O)cc3)C(=O)N(Cc3cccc4c(C(=O)Nc5ccc(N(CCN(CC)CC)CCN(CC)CC)nc5)cn(C)c34)CC2N1C(=O)NCc1ccccc1 (centres unmarked) [Compound G-26] | 5.35 µM |
| C=CCN1CC(=O)N2[C@@H](Cc3ccc(O)cc3)C(=O)N(Cc3cccc4c(C(=O)N5CC6CCN(C)C6C5)cn(C)c34)C[C@@H]2N1C(=O)NCc1ccccc1 (some centres unmarked) [Compound E-68] | 2.45 µM |
| C=CCN1CC(=O)N2[C@@H](Cc3ccc(O)cc3)C(=O)N(Cc3cccc4c(-c5ccc(C(=O)Nc6cccc(OCc7ccccc7)c6)cc5)cn(C)c34)C[C@@H]2N1C(=O)NCc1ccccc1 [Compound D-20] | 17.2 µM |
| C=CCN1CC(=O)N2[C@@H](Cc3ccc(O)cc3)C(=O)N(Cc3cccc4c(C(=O)NN5CCCC5)cn(C)c34)C[C@@H]2N1C(=O)NCc1ccccc1 [Compound F-56] | 17.4 µM |
| C=CCN1CC(=O)N2[C@@H](Cc3ccc(O)cc3)C(=O)N(Cc3cccc4c(C(=O)N5CCC(N(C)C)CC5)cn(C)c34)C[C@@H]2N1C(=O)NCc1ccccc1 [Compound E-61] | 2.23 µM |
| C=CCN1CC(=O)N2[C@@H](Cc3ccc(O)cc3)C(=O)N(Cc3cccc4c(C(=O)NN5CCOCC5)cn(C)c34)C[C@@H]2N1C(=O)NCc1ccccc1 [Compound F-58] | 22.3 µM |
| C=CCN1CC(=O)N2[C@@H](Cc3ccc(O)cc3)C(=O)N(Cc3cccc4c(C(=O)NCCN(CC)CC)cn(C)c34)C[C@@H]2N1C(=O)NCc1ccccc1 [Compound F-14] | 3.64 µM |
| C=CCN1CC(=O)N2[C@@H](Cc3ccc(O)cc3)C(=O)N(Cc3cccc4c(C(=O)N5CCN6CCN(C(C)=O)CC6C5)cn(C)c34)C[C@@H]2N1C(=O)NCc1ccccc1 (some centres unmarked) [Compound E-44] | 15 µM |

| Compound | IC50 |
| --- | --- |
| C=CCN1CC(=O)N2[C@@H](Cc3ccc(O)cc3)C(=O)N(Cc3cccc4c(C(=O)N5CCN(CCCCO)CC5)cn(C)c34)C[C@@H]2N1C(=O)NCc1ccccc1 [Compound E-12] | 9.3 µM |
| C=CCN1CC(=O)N2[C@@H](Cc3ccc(O)cc3)C(=O)N(Cc3cccc4c(-c5ccc(NC(=O)NCC(C)(C)C)nc5)cn(C)c34)C[C@@H]2N1C(=O)NCc1ccccc1 [Compound D-96] | 2.19 µM |
| C=CCN1CC(=O)N2[C@@H](Cc3ccc(O)cc3)C(=O)N(Cc3cccc4c(C(=O)N5CCC(O)CC5)cn(C)c34)C[C@@H]2N1C(=O)NCc1ccccc1 [Compound E-51] | 10.7 µM |
| C=CCN1CC(=O)N2C(Cc3ccc(O)cc3)C(=O)N(Cc3cccc4c(C(=O)Nc5ccc(NCCN(C(C)C)C(C)C)nc5)cn(C)c34)CC2N1C(=O)NCc1ccccc1 (centres unmarked) [Compound G-25] | 4.05 µM |
| C=CCN1CC(=O)N2[C@@H](Cc3ccc(O)cc3)C(=O)N(Cc3cccc4c(C(=O)N(C)NC)cn(C)c34)C[C@@H]2N1C(=O)NCc1ccccc1 [Compound F-53] | 2.33 µM |
| C=CCN1CC(=O)N2[C@@H](Cc3ccc(O)cc3)C(=O)N(Cc3cccc4c(C(=O)NNCC(=O)OCC)cn(C)c34)C[C@@H]2N1C(=O)NCc1ccccc1 [Compound F-55] | 6.15 µM |
| C=CCN1CC(=O)N2[C@@H](Cc3ccc(O)cc3)C(=O)N(Cc3cccc4c(C(=O)N5CCC(NC(=O)c6ccc(N7CCN(C)CC7)cc6)CC5)cn(C)c34)C[C@@H]2N1C(=O)NCc1ccccc1 [Compound E-60] | 6.02 µM |
| C=CCN1CC(=O)N2[C@@H](Cc3ccc(O)cc3)C(=O)N(Cc3cccc4c(C(=O)NCCCN5CCOCC5)cn(C)c34)C[C@@H]2N1C(=O)NCc1ccccc1 [Compound F-29] | 1.1 µM |
| C=CCN1CC(=O)N2[C@@H](Cc3ccc(O)cc3)C(=O)N(Cc3cccc4c(C(=O)NN5CCCCC5)cn(C)c34)C[C@@H]2N1C(=O)NCc1ccccc1 [Compound F-57] | 4.78 µM |
| C=CCN1CC(=O)N2[C@@H](Cc3ccc(O)cc3)C(=O)N(Cc3cccc4c(C(=O)N5CCC(C(=O)N(C)CCN(C)C)CC5)cn(C)c34)C[C@@H]2N1C(=O)NCc1ccccc1 [Compound E-54] | 4.97 µM |
| C=CCN1CC(=O)N2[C@@H](Cc3ccc(O)cc3)C(=O)N(Cc3cccc4c(C(=O)NCCN5CCN(C)CC5)cn(C)c34)C[C@@H]2N1C(=O)NCc1ccccc1 [Compound F-27] | 11.5 µM |
| C=CCN1CC(=O)N2[C@@H](Cc3ccc(O)cc3)C(=O)N(Cc3cccc4c(C(=O)NCCN5CCOCC5)cn(C)c34)C[C@@H]2N1C(=O)NCc1ccccc1 [Compound F-25] | 8.5 µM |
| C=CCN1CC(=O)N2[C@@H](Cc3ccc(O)cc3)C(=O)N(Cc3cccc4c(C(=O)Nc5ccc(F)nc5)cn(C)c34)C[C@@H]2N1C(=O)NCc1ccccc1 [Compound G-1] | 2.97 µM |
| C=CCN1CC(=O)N2[C@@H](Cc3ccc(O)cc3)C(=O)N(Cc3cccc4c(C(=O)N5CCN6CCN(C=O)CC6C5)cn(C)c34)C[C@@H]2N1C(=O)NCc1ccccc1 (some centres unmarked) [Compound E-48] | 12.1 µM |
| C=CCN1CC(=O)N2[C@@H](Cc3ccc(O)cc3)C(=O)N(Cc3cccc4c(C(=O)NCCCN(C)C)cn(C)c34)C[C@@H]2N1C(=O)NCc1ccccc1 [Compound F-18] | 17.9 µM |
| C=CCN1CC(=O)N2[C@@H](Cc3ccc(O)cc3)C(=O)N(Cc3cccc4c(C(=O)NCCOCCO)cn(C)c34)C[C@@H]2N1C(=O)NCc1ccccc1 [Compound F-7] | 16.4 µM |
| C=CCN1CC(=O)N2[C@@H](Cc3ccc(O)cc3)C(=O)N(Cc3cccc4c(C(=O)N(C)CC(=O)N5CCN(C)CC5)cn(C)c34)C[C@@H]2N1C(=O)NCc1ccccc1 [Compound F-32] | 5.04 µM |
| C=CCN1CC(=O)N2[C@@H](Cc3ccc(O)cc3)C(=O)N(Cc3cccc4c(C(=O)N5CCN(CCN6CCCCC6)CC5)cn(C)c34)C[C@@H]2N1C(=O)NCc1ccccc1 [Compound E-24] | 5.53 µM |
| C=CCN1CC(=O)N2[C@@H](Cc3ccc(O)cc3)C(=O)N(Cc3cccc4c(C(=O)N(C)CCn5ccnc5C)cn(C)c34)C[C@@H]2N1C(=O)NCc1ccccc1 [Compound F-36] | 2.48 µM |
| C=CCN1CC(=O)N2[C@@H](Cc3ccc(O)cc3)C(=O)N(Cc3cccc4c(C(=O)NCCCO)cn(C)c34)C[C@@H]2N1C(=O)NCc1ccccc1 [Compound F-4] | 16.2 µM |
| C=CCN1CC(=O)N2[C@@H](Cc3ccc(O)cc3)C(=O)N(Cc3cccc4c(C(=O)NCCCC(=O)OC)cn(C)c34)C[C@@H]2N1C(=O)NCc1ccccc1 [Compound F-23] | 3.46 µM |
| C=CCN1CC(=O)N2C(CN(Cc3cccc4c(C(=O)Nc5ccc(NCCN6CCC(O)CC6)nc5)cn(C)c34)C(=O)[C@@H]2Cc2ccc(O)cc2)N1C(=O)NCc1ccccc1 (some centres unmarked) [Compound G-29] | 5.8 µM |
